Measured values from patent EP1268487B1, “TRICYCLIC PROTEIN KINASE INHIBITORS” (Wyeth, priority 2000, dated 2001).
In brackets after ≈: the same amount, converted by molar mass.

What was measured:
[1] = target: T1, Epidermal Growth Factor Receptor Kinase (EGF-R) (Homo sapiens, UniProt P00533); assay: Inhibition of Epidermal Growth Factor Receptor Kinase (EGF-R) using recombinant enzyme; format: biochemical; conditions: for inhibition at 0.5 µM: 0.5 µM concentration of test compound
T1 construct: containing the EGFR cDNA encoding amino acids 645 - 1186 preceded by Met-Ala-(His)6; Met-Ala-(His)6 (N); made in house; host or cells: Sf9 insect cells (baculovirus vHcEGFR52)
T1 sequence (P00533 669-1210): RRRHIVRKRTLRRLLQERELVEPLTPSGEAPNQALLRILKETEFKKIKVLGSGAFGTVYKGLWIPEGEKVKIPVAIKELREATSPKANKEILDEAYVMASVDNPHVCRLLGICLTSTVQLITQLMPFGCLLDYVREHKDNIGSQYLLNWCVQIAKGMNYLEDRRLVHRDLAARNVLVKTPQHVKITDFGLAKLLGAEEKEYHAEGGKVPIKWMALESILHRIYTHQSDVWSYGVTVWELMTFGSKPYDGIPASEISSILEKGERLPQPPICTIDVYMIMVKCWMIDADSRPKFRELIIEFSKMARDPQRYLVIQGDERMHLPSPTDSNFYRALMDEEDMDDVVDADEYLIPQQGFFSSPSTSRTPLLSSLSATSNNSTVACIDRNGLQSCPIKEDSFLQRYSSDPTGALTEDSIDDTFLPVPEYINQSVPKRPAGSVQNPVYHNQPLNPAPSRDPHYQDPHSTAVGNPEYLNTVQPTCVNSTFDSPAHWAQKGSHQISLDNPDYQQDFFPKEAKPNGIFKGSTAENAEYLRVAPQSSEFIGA
Procedure: Representative test compounds were evaluated for their ability to inhibit the phosphorylation of the tyrosine residue of a peptide substrate catalyzed by the enzyme epidermal growth factor receptor kinase. The peptide substrate (RR-SRC) has the sequence arg-arg-leu-ile-glu-asp-ala-glu-tyr-ala-ala-arg-gly. The enzyme used in this assay is the His-tagged cytoplasmic domain of EGFR. A recombinant baculovirus (vHcEGFR52) was constructed containing the EGFR cDNA encoding amino acids 645 - 1186 preceded by Met-Ala-(His)6. Sf9 cells in 100 mm plates were infected at an moi of 10 pfu/cell and cells were harvested 48 hours post infection. A cytoplasmic extract was prepared using 1% Triton X-100 and applied to Ni-NTA column. After washing the column with 20 mM imidazole, HcEGFR was eluted with 250 mM imidazole (in 50 mM Na2HPO4, pH 8.0, 300 mM NaCl). Fractions collected were dialyzed against 10 mM HEPES, pH 7.0, 50 mM NaCl, 10% glycerol, 1µg/mL antipain and leupeptin and 0.1 mM Pefabloc SC. The protein was frozen in dry ice/methanol and stored -70° C.
Test compounds were made into 10 mg/mL stock solutions in 100% dimethylsulfoxide (DMSO). Prior to experiment, stock solutions were diluted to 500 µM with 100% DMSO and then serially diluted to the desired concentration with HEPES buffer (30 mM HEPES pH 7.4).
For the enzyme reaction, 10 µL of each inhibitor (at various concentrations) were added to each well of a 96-well plate. To this was added 3 µL of enzyme (1:10 dilution in 10mM HEPES, pH 7.4 for final conc. of 1:120). This was allowed to sit for 10 minutes on ice and was followed by the addition of 5 µl peptide (80 uM final conc.), 10µl of 4X Buffer (Table A), 0.25 µL ^33P-ATP and 12 µL H2O. The reaction was allowed to run for 90 minutes at room temperature and was followed by spotting the entire volume on to precut P81 filter papers. The filter discs were washed 2X with 0.5% phosphoric acid and radioactivity was measured using a liquid scintillation counter. Table A
The inhibition data for representative compounds of the invention are shown below in TABLE 1. The IC50 is the concentration of test compound needed to reduce the total amount of phosphorylated substrate by 50%. The % inhibition of the test compound was determined for at least three different concentrations and the IC50 value was evaluated from the dose response curve. […] CPM(control) is in units of counts per minute and was a number expressing the amount of radiolabeled ATP (γ-^33P) incorporated into the RR-SRC peptide substrate by the enzyme after 90 minutes at room temperature in the absence of test compound as measured by liquid scintillation counting. The CPM values were corrected for the background counts produced by ATP in the absence of the enzymatic reaction. Where it was possible to determine an IC50 value, this is reported in TABLE 1 otherwise the % inhibition at 0.5 µM concentration of test compound is shown in TABLE 1.

c-Met = target: T2, c-Met (Homo sapiens, UniProt P08581); assay: DELFIA assay for c-Met receptor kinase inhibitors; format: biochemical
T2 construct: The cytoplasmic domain of c-Met was generated by reverse transcriptase-polymerase chain reaction; His tag (from pFastBac-HTc vector; purified on Ni-NTA/Talon); made in house; host or cells: Sf9 insect cells (baculovirus)
T2 sequence (P08581 956-1390 limits assumed): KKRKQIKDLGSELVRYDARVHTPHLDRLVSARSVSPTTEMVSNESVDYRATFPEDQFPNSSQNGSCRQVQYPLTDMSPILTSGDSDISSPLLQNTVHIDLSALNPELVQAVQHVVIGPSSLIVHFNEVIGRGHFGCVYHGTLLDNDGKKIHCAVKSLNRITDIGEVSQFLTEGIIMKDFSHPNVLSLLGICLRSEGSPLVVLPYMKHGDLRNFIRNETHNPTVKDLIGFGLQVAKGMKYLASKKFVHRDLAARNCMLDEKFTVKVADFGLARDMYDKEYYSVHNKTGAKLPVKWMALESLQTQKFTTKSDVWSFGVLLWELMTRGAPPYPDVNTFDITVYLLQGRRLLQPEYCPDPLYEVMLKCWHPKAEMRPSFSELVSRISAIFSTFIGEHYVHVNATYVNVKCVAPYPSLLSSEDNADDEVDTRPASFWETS
Procedure: The c-Met kinase assay was performed as a DELFIA (dissociation enchanced lanthanide fluorometric immunoassay), an ELISA-like protocol based upon time-resolved fluorometry as described previously [Braunwalder, A. F., Yarwood, D.R., Sills, M.A., and Lipson, K.E., Anal. Biochem. 238, 159-164 (1996)]. The protocol was adopted for the screening of inhibitors of the kinase activity of recombinant c-Met. [Loganzo, F., and. Hardy, C., American Biotechnology Laboratory 16(13), 26-28 (1998)]. The cytoplasmic domain of c-Met was generated by reverse transcriptase-polymerase chain reaction using RNA isolated from human mammary epithelial cells as template, cloned into the pFastBac-HTc vector (Life Technologies) and protein expressed in Sf9 insect cells by baculovirus infection. Protein was purified by imidazole elution from Ni-NTA resin (Invitrogen, Carlsbad, CA) or Talon resin (Clontech, Palo Alto, CA). Various conditions were evaluated for the kinase screening protocol and screening was accomplished with the following method. Polystyrene Maxisorp plates (Nunc) were pre-coated for 1 hour to overnight at room temperature with 5 µg/ml poly(Glu4-Tyr) diluted in Tris-buffered saline (TBS). Plates were washed 3X with TBS. c-Met protein preparation was diluted 1:80 into 0.1% BSA/ 4 mM HEPES. A master mix was prepared consisting of: 1 volume of diluted c-Met, 1 volume of 5X buffer (20 mM HEPES, pH 7.4; 2 mM MnCl2; 100 µM Na3VO4; 1 mM DTT), 0.9 volume of water. Master mix (29 µl) was added to the wells of peptide-coated microtiter plates. For assays where c-Met autophosphorylation was evaluated, plates were uncoated and c-Met was diluted into 4 mM HEPES at 1:40 without BSA. Compounds (1 µl) at various dilutions (1 mM to 0.1 µM) prepared in DMSO were added and mixed well with an automatic piptettor. After incubation 20 minutes at room temperature, the reaction was initiated with 20 µl of 62.5 µM ATP/ 50 mM MgCl2 (final 25 µM ATP/ 20 mM MgCl2 in assay). Reactions were incubated 45 minutes at room temperature. Plates were then washed 3X with 100 µl each of DELFIA wash buffer (Wallac). Antibody binding was performed by adding 75 µl of Europium-conjugated anti-phosphotyrosine diluted 1:2000 in Assay Buffer (Wallac) for 1 hour at room temperature. Plates were washed 3X with DELFIA wash buffer. Detection was done by addition of 100 µl of Enhancement Solution (Wallac). After 30 minutes, plates were read in a Wallac VICTOR-2 time-resolved fluorometer. Inhibition data was reported as europium counts for compound treated wells normalized to control counts. IC50 values were obtained by using log doses of compound and calculated using Data Analysis Toolbox software, version 1.0.2 (MDL Information Systems, Inc.).

3T3 = assay: Inhibition of cancer cell growth as measured by cell number (Sulforhodamine B); format: cell-based; conditions: Mus musculus, NIH3T3; 48 hours exposure
Procedure: (§1) Human tumor cell lines were plated in 96-well plates (250 µl/well, 1-6 x 10^4 cells/ml) in RPMI 1640 medium, containing 5% FBS (Fetal Bovine Serum). […] After 48 hours exposure to test compounds, cells were fixed with trichloroacetic acid, and stained with Sulforhodamine B. After washing with trichloroacetic acid, bound dye was solubilized in 10 mM Tris base and optical density was determined using a plate reader. Under conditions of the assay the optical density is proportional to the number of cells in the well. IC50s (concentrations causing 50% inhibition of cell growth) were determined from the growth inhibition plots. The test procedure is described in details by Philip Skehan et. al, J.Natl. Canc. Inst., 82, 1107-1112 (1990). […] Information about some of the cell lines used in these test procedures is available from the American Type Tissue Collection: Cell Lines and Hybridomas, 1994 Reference Guide, 8th Edition. The Her2Neu cell line is a 3T3 line that has been transfected with Her2 receptor kinase.

A431 = assay: as above; format: cell-based; conditions: Homo sapiens, A-431; 48 hours exposure
Procedure: as §1

Her2Neu = assay: as above; format: cell-based; conditions: 48 hours exposure; 3T3 line transfected with Her2 receptor kinase
Procedure: as §1

MDA435 = assay: as above; format: cell-based; conditions: Homo sapiens, 48 hours exposure
Procedure: as §1

SKBR3 = assay: as above; format: cell-based; conditions: Homo sapiens, SK-BR-3; 48 hours exposure
Procedure: as §1

SW620 = assay: as above; format: cell-based; conditions: Homo sapiens, SW-620; 48 hours exposure
Procedure: as §1

[2] = system: Human Epidermoid Tumors (A431); assay: In vivo inhibition of the growth of human epidermoid tumors (A431); parameters: species or system BALB/c nu/nu female mice; conditions: for %T/C / RTG Day 7 / RTG Day 14 / RTG Day 21: days 1 through 10; for S/T: # of Survivors/# of Treated on Day +21
Procedure: BALB/c nu/nu female mice (Charles River, Wilmington, MA) were used in the in vivo standard pharmacological test procedures. Human epidermoid carcinoma cells A-431 (American Type Culture Collection, Rockville, Maryland # CRL-155) were grown in vitro as described above. A unit of 5 X 10^6 cells were injected subcutaneously into mice. When tumors attained a mass of between 100 and 150 mg, the mice were randomized into treatment groups (day zero). Mice were treated orally (PO) once a day on days 1 through 10 post staging with doses of either 40, 20, 10, 3 or 1 mg/kg/dose of the compound to be evaluated in 0.2% Klucel. Control animals received no drug. Tumor mass was determined every 7 days [(length X width^2)/2] for 28 days post staging. Relative tumor growth (Mean tumor mass on day 7, 14, and 21 divided by the mean tumor mass on day zero) is determined for each treatment group. The %T/C (Tumor/Control) is determined by dividing the relative tumor growth of the treated group by the relative tumor growth of the placebo group and multiplying by 100. A compound is considered to be active if the %T/C is found to be […].

CN(C)CCCC(=O)N1CCOc2cc3ncc(C#N)c(Nc4ccc(F)c(Cl)c4)c3cc21 [Example 10]
inhibition at 0.5 µM [1]: 57.8%
inhibition at 10 µg/mL (c-Met): 50%
IC50 (3T3): 1.99 µg/mL (≈ 4.25 µM)
IC50 (A431): 1.01 µg/mL (≈ 2.15 µM)
IC50 (Her2Neu): > 5 µg/mL
IC50 (MDA435): 2.72 µg/mL (≈ 5.81 µM)
IC50 (SKBR3): 1.07 µg/mL (≈ 2.28 µM)
IC50 (SW620): 1.89 µg/mL (≈ 4.04 µM)

CN(C)C/C=C/C(=O)N1CCOc2cc3ncc(C#N)c(Nc4ccc(F)c(Cl)c4)c3cc21 [Example 9, 9-(3-Chloro-4-fluoroanilino)-1-[(2E)-4-(dimethylamino)-2-butenoyl]-2,3-dihydro-1H-[1,4]oxazino[3,2-g]quinoline-8-carbonitrile]
inhibition at 0.5 µM [1]: 56.5%
IC50 ([1]; recombinant enzyme): 170 nM
IC50 (3T3): 0.169 µg/mL (≈ 0.364 µM)
IC50 (A431): 0.108 µg/mL (≈ 0.232 µM)
IC50 (Her2Neu): 0.15 µg/mL (≈ 0.323 µM)
IC50 (MDA435): 0.24 µg/mL (≈ 0.515 µM)
IC50 (SW620): 0.165 µg/mL (≈ 0.354 µM)
%T/C ([2]; 1 mg/kg/dose PO, Day 7): 103%
RTG Day 7 ([2]; 1 mg/kg/dose PO, Day 7): 4.66
%T/C ([2]; 1 mg/kg/dose PO, Day 14): 73%
RTG Day 14 ([2]; 1 mg/kg/dose PO, Day 14): 8.11
%T/C ([2]; 1 mg/kg/dose PO, Day 21): 76%
RTG Day 21 ([2]; 1 mg/kg/dose PO, Day 21): 13.23
S/T ([2]; 1 mg/kg/dose PO): 5/5
%T/C ([2]; 3 mg/kg/dose PO, Day 7): 104%
RTG Day 7 ([2]; 3 mg/kg/dose PO, Day 7): 4.76
%T/C ([2]; 3 mg/kg/dose PO, Day 14): 107%
RTG Day 14 ([2]; 3 mg/kg/dose PO, Day 14): 11.79
%T/C ([2]; 3 mg/kg/dose PO, Day 21): 137%
RTG Day 21 ([2]; 3 mg/kg/dose PO, Day 21): 23.77
S/T ([2]; 3 mg/kg/dose PO): 5/5
%T/C ([2]; 10 mg/kg/dose PO, Day 7): 105%
RTG Day 7 ([2]; 10 mg/kg/dose PO, Day 7): 4.81
%T/C ([2]; 10 mg/kg/dose PO, Day 14): 87%
RTG Day 14 ([2]; 10 mg/kg/dose PO, Day 14): 9.66
%T/C ([2]; 10 mg/kg/dose PO, Day 21): 64%
RTG Day 21 ([2]; 10 mg/kg/dose PO, Day 21): 11.49
S/T ([2]; 10 mg/kg/dose PO): 5/5
%T/C ([2]; 20 mg/kg/dose PO, Day 7): 118%
RTG Day 7 ([2]; 20 mg/kg/dose PO, Day 7): 5.40
%T/C ([2]; 20 mg/kg/dose PO, Day 14): 96%
RTG Day 14 ([2]; 20 mg/kg/dose PO, Day 14): 10.56
%T/C ([2]; 20 mg/kg/dose PO, Day 21): 84%
RTG Day 21 ([2]; 20 mg/kg/dose PO, Day 21): 14.56
S/T ([2]; 20 mg/kg/dose PO): 5/5
%T/C ([2]; 40 mg/kg/dose PO, Day 7): 75%
RTG Day 7 ([2]; 40 mg/kg/dose PO, Day 7): 3.40
%T/C ([2]; 40 mg/kg/dose PO, Day 14): 53%
RTG Day 14 ([2]; 40 mg/kg/dose PO, Day 14): 5.93
%T/C ([2]; 40 mg/kg/dose PO, Day 21): 41%
RTG Day 21 ([2]; 40 mg/kg/dose PO, Day 21): 7.15
S/T ([2]; 40 mg/kg/dose PO): 5/5
inhibition of tumor growth in vivo ([2]; summary statement in words): effective inhibitor of tumor growth in vivo
